Assay results published in publication PMC10130856 (Heliyon, 2023).

Target: hen egg-white lysozyme (HEWL) (Gallus gallus, UniProt P00698)
Assay: intrinsic tryptophan fluorescence quenching
Type: binding
Settings: pH 7.4, 20 mM sodium phosphate, 298.15 K, 5 μM protein; double-log

hen egg-white lysozyme (HEWL), sequence (P00698 19-147): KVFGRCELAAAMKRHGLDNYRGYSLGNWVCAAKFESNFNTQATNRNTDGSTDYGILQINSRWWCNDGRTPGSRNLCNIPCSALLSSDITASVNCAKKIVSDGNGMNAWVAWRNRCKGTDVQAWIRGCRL

In the case of `CCCCC(=O)N(Cc1ccc(-c2ccccc2-c2nn[nH]n2)cc1)[C@H](C(=O)O)C(C)C` [valsartan], the “Kb(M^-1)” value is reported as 2.96 × 10^8±0.21 M^−1.
